Measured values as given in patent EP4663632A1, “COMPOUNDS USEFUL FOR THE MODULATION OF THE ACTIVITY OF STING” (Sulis Therapeutics ApS, priority 2024, dated 2025).
Blank lines part the entries; values can stand above or below the compound they belong to.

Experiments:
[1] = molecular target: T1, C-terminal domain (CTD) of human STING (Homo sapiens, UniProt Q86WV6); experiment: STING binding FP assay I; parameters: recombinant human STING protein (155-379); conditions: 35 nM STING, 4 nM Probe 1
Description: (§1) The interaction between molecules and the C-terminal domain (CTD) of human STING was evaluated using a competition binding assay. In this assay, recombinant human STING protein (155-379) and a STING binding fluorescent probe were employed. Upon binding of the probe to STING, the rotation of the fluorescent probe is slowed due to the larger molecular size of the protein-bound complex. As a result, emitted light retains its plane of polarization, leading to an increase in fluorescence polarization. Molecules competing for the probe binding site displace the probe, which leads to rapid randomization of the polarization plane of the emitted light and a subsequent decrease in measured fluorescence polarization signal. Change in polarization was measured, allowing a comparative evaluation of the binding affinities of different compounds to the target protein.
(§2) The assay was performed in 96-well plates (ThermoFisher, cat.# 237108) containing 100µl : 10 µL test compound in 10% DMSO and buffer A (150 mM NaCl, 50 mM HEPES pH 7.5, 1 mM DTT) + 90 µL prepared master mix solution of: 4 nM fluorescein-labelled STING ligand (Probe 1; synthesis described above) in buffer A + 0.055% Tween-20 (v/v) and 35 nM STING in buffer A. Post mixing, plates were agitated at 600rpm and incubated for 20 min at room temperature. Subsequent measurements of the fluorescence polarization signal were made on a BioTek Synergy-H1 plate reader, using a polarization filter; Exc: 485/20 nm, Em: […]) with a gain-setting of 75. IC50 values were determined using a standard non-linear regression four-parameter curve fit in Graphpad Prism.

[2] = molecular target: T1, C-terminal domain (CTD) of human STING; experiment: STING binding FP assay II; parameters: recombinant human STING protein (155-379); conditions: 7 nM STING
Description: as §1, §2
The procedure for STING binding FP assay II is the same as described for STING binding FP assay I, except for a lower STING concentration. In STING binding FP assay II, a concentration of 7 nM STING in buffer A was used.

STING [3] = molecular target: T2, STING (Homo sapiens, UniProt Q86WV6); experiment: Western Blot analysis of STING phosphorylation in human fibroblast cells (STING agonism); type: cell-based; parameters: host or cells: HFF-1 human foreskin fibroblasts; conditions: 7.2µM-3.6nM; 24h
T2 sequence (Q86WV6 whole entry): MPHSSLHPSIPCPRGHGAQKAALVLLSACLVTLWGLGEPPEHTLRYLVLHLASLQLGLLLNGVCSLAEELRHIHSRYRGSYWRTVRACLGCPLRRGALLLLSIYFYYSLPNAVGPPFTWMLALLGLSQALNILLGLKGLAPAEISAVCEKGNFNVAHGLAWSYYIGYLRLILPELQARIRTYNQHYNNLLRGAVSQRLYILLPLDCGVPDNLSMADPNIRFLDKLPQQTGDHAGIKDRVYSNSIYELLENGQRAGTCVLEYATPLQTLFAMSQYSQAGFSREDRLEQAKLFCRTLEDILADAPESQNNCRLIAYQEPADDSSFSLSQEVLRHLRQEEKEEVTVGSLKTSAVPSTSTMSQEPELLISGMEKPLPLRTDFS
Description: Human fibroblast were treated with a titration of E22, E9, E14 and E16 (7.2µM-3.6nM) for 24h prior to cell lysis and subsequently total STING, pSTING and Vinculin were assessed by western blot using rabbit anti-STING (1:1000), anti-pSTING (1:1000), anti-Vinculin (1:1000) and 2nd anti-rabbit-HRP (1:10.000) or anti-mouse-HRP (1:7500). Proteins were visualized using ImageQuant800. Control cells included untreated cells and cells treated with 300nM diABZI C3.

[4] = molecular target: T1, C-terminal domain (CTD) of human STING; experiment: STING binding FP assay III; parameters: recombinant human STING protein (155-379); conditions: 10 nM STING (FP assay III according to the text); read-out: STING binding FP assay II, IC50
Description: as §1, §2
The procedure for STING binding FP assay III is the same as described for STING binding FP assay I, except for a lower STING concentration. In STING binding FP assay III, a concentration of 10 nM STING in buffer A was used.

STING [5] = molecular target: T2, STING; experiment: Western Blot analysis for STING degradation (DC50) in HFF-1 cells; type: cell-based; parameters: host or cells: HFF-1 human foreskin fibroblasts; conditions: 24h
Description: To assess STING degradation in human foreskin fibroblasts HFF-1 cells (ATCC, SCRC-1041) cells were seeded at a density of 60.000 cells/well in 24-well Nunclon Delta surface treated culture plate in DMEM growth medium (supplemented with 10% FBS, 1% Pen-strep). Cells were incubated over-night at 37°C 5% CO2 to allow adhesion. Next day growth medium was renewed and a 5x concentration of test compounds (2.5% DMSO) diluted in growth medium were added to the appropriate well. The final DMSO concentration were 0.5%. Cell culture plates were returned to the incubator for additional 24h.
(§3) For cell lysing for Western Blot analysis cell culture plates were brought to ice, supernatant was removed by aspiration and cells washed 2x in ice-cold DPBS. Cells were lysed in 65 µL of RIPA buffer supplemented with cOmplete ULTRA Tablets protease inhibitor cocktail, PIERCE Phosphatase inhibitor mini tablet, Benzonase and 10mM NaF for 20 min on ice. Lysates were collected, cleared by centrifugation (13000xg for 10 min at 4°C). Samples were either analysed directly or stored at -80°C until analysis.
(§4) For Western Blotting, total protein concentration in each lysate was determined using PIERCE Gold BCA Assay kit according to manufactures protocol. 6 µg of total protein was mixed with 2x Laemmli buffer containing DTT, boiled for 5 min at 95°C, cooled on ice and loaded into each well of a 4-20% Criterion TGX gel. Proteins were separated by electrophoresis, by running for 1h at 150V. After separation proteins were blotted onto a PVDF membrane by semi-dry transfer using Trans-Blot turbo system at pre-defined BioRad MIDI protocol; 25V, 1A (fixed) for 30 min. Membranes were blocked for 1h in 5% skim milk in TBS-T20 on a rocker at room temperature followed by washing and exposure to primary antibodies against human STING 1:1000 (Cell Signalling, #13647) or loading controls Vinculin 1:1000 (Cell Signalling, #13901) or beta-Actin 1:10000 (Sigma, A5441) all diluted in 5% BSA in TBS-T20. Membranes were probed over night at 4°C on a rocker. Membranes were washed 3x in TBS-T20 followed by exposure to secondary HRP-conjugated anti-rabbit antibody or HRP-conjugated anti-mouse antibody diluted 1:10000 in 5% skim milk in TBS-T20 as appropriate. Membranes were incubated for 1h at room temperature on a rocker, then washed 3x in TBS-T20.
(§5) For generating DC50 values, the intensity of individual bands was measured using imaged and expression levels were calculated as a ratio of STING intensities vs. Reference protein intensities and normalized to DMSO control. The normalized ratios were plotted on a XY curve in GraphPad Prism where DC50 was estimated using a 4-parameter non-linear regression fitting curve.

STING [6] = molecular target: T2, STING; experiment: Western Blot analysis for STING degradation in H596 cells; type: cell-based; conditions: 24h; reference protein beta-actin
Description: as §3, §4, §5
To assess STING degradation in H596 cells (ATCC, HTB-178) cells were seeded at a density of 100.000 cells/well in 24-well Nunclon Delta surface treated culture plate in RPMI-1640 growth medium (supplemented with 10% FBS, 1% Pen-strep). Cells were incubated over-night at 37°C 5% CO2 to allow adhesion. Next day growth medium was renewed and a 5x concentration of test compounds (2.5% DMSO) diluted in growth medium were added to the appropriate well. Final DMSO concentration was 0.5%. Cell culture plates were returned to the incubator for additional 24h. Final test compound concentrations were 0.22 µM, 0.67 µM, 2 µM and 6 µM.
For cell lysis, western blotting and data analysis, the methods described above for HFF-1 cells were applied.

STING [7] = molecular target: T2, STING; experiment: Western Blot analysis of inhibition of STING activation in HFF-1 cells; type: cell-based; parameters: host or cells: HFF-1 human foreskin fibroblasts; conditions: for STING, TBK1 and IRF1 phosphorylation: 2 h or 5 h
Description: (§6) To assess whether S1 STING ligands inhibit STING activation, primary human skin fibroblasts (Figure 5) or HFF-1 cells (Figure 6) were treated with various compounds which comprise only an S1 ligand domain and a Linker domain before undergoing Western Blot analysis as described below.
The cells were lysed and analysed on WB. […] The WB membrane was probed for p-STING, STING, p-IRF3, p-TBK1, and Vinculin.

STING [8] = molecular target: T2, STING; experiment: Western Blot analysis for S1 STING ligand antagonism in primary human skin fibroblasts; type: cell-based; parameters: host or cells: HFF-1 human foreskin fibroblasts; conditions: 5 µM; 2 h or 1 h before, simultaneously with, or 15 minutes after 0.3 µM diABZI
Description: as §6, with “below. Compounds A9, A11, A26 and A30 used in the following experiments share a common S1 ligand, which is also shared by Example compounds 1, 3, 5-29, 33-38.” for “below.”
Cells were incubated with A9 or A11 for 1 or 2 hours before addition of diABZI c3, treated with test compound and diABZI c3 simultaneously, or treated with A9 or A11 after 15 minutes incubation with diABZI c3. As a control, cells were also treated with diABZI c3 alone.

T1 sequence (Q86WV6 155-379): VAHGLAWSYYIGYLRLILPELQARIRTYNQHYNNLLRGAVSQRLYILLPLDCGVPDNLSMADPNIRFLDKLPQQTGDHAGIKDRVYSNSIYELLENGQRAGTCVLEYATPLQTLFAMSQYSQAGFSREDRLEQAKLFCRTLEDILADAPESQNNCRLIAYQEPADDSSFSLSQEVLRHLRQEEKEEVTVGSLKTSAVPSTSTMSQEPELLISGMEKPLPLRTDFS

Compound: CCn1nc(C)cc1C(=O)N=c1n(C)c2cc(C(N)=O)ccc2n1CCC(CCn1c(=NC(=O)c2cc(C)nn2CC)n(C)c2cc(C(N)=O)ccc21)OCC(=O)NCCOCCOCCOCCOc1cccc(C(=O)c2csc([C@@H]3CCCN3C(=O)[C@@H](NC(=O)[C@H](C)NC)C3CCCCC3)n2)c1 (stereo partly shown) [Example 22]
- STING phosphorylation (pSTING) (STING [3]): no STING phosphorylation was observed

Compound: CCn1nc(C)cc1C(=O)N=c1n(C)c2cc(C(N)=O)ccc2n1CCC(CCn1c(=NC(=O)c2cc(C)nn2CC)n(C)c2cc(C(N)=O)ccc21)OCC(=O)NCCOCCOCCOCCOCCC(=O)NCCOCCOCCOCCOCCOCCNc1cccc2c1C(=O)N(C1CCC(=O)NC1=O)C2=O (stereo not shown) [Example 25]
- IC50 [4]: 3.1 nM
- DC50 (STING [5]; reference protein beta-actin): < 200 nM

Compound: CCn1nc(C)cc1C(=O)N=c1n(C)c2cc(C(N)=O)ccc2n1CCC(CCn1c(=NC(=O)c2cc(C)nn2CC)n(C)c2cc(C(N)=O)ccc21)OCC(=O)NCCOCCOCCOCCOCCC(=O)NCCOCCOCC(=O)N[C@H]1C[C@@H](C(=O)N[C@@H]2CCCc3ccccc32)N(C(=O)[C@@H](NC(=O)[C@H](C)NC)C2CCCCC2)C1 (stereo partly shown) [Example 26]
- IC50 [4]: 4.4 nM
- DC50 (STING [5]; reference protein vinculin): < 200 nM

Compound: CCn1nc(C)cc1C(=O)N=c1n(C)c2cc(C(N)=O)ccc2n1CCC(CCn1c(=NC(=O)c2cc(C)nn2CC)n(C)c2cc(C(N)=O)ccc21)OCC(=O)NCCOCCOCCOCCOCCC(=O)N(C)CCOCCOCCOCCOCCC(=O)N[C@H](C(=O)N1C[C@H](O)C[C@H]1C(=O)N[C@@H](C)c1ccc(-c2scnc2C)cc1)C(C)(C)C (stereo partly shown) [Example 27]
- IC50 [4]: 4.5 nM
- DC50 (STING [6]): < 200 nM

Now from value to compound, other results behind:

- IC50 [1]: < 30 nM
Compound: CCn1nc(C)cc1C(=O)N=c1n(C)c2cc(C(N)=O)ccc2n1CCC(CCn1c(=NC(=O)c2cc(C)nn2CC)n(C)c2cc(C(N)=O)ccc21)OCC(=O)O (stereo not shown) [Building Block G-4, (3-{5-Carbamoyl-2-[(1-ethyl-3-methyl-5-pyrazolyl)carbonylimino]-3-methyl-2,3-dihydro-1H-1,3-benzimidazol-1-yl}-1-(2-{5-carbamoyl-2-[(1-ethyl-3-methyl-5-pyrazolyl)carbonylimino]-3-methyl-2,3-dihydro-1H-1 ,3-benzimidazol-1-yl}ethyl)propoxy)acetic acid]

- IC50 [2]: 8.4 nM
- STING phosphorylation (pSTING) (STING [3]): no STING phosphorylation was observed
Compound: CCn1nc(C)cc1C(=O)N=c1n(C)c2cc(C(N)=O)ccc2n1CCC(CCn1c(=NC(=O)c2cc(C)nn2CC)n(C)c2cc(C(N)=O)ccc21)OCC(=O)NCCOCCOCCOCCOCCOc1cccc(C(=O)c2csc([C@@H]3CCCN3C(=O)[C@@H](NC(=O)[C@H](C)NC)C3CCCCC3)n2)c1 (stereo partly shown) [Example 9]

- LC3B lipidation (STING [8]): reduced LC3B lipidation
- P-STING intensity (activation of STING) (STING [8]): reduced intensity of P-STING
- P-TBK1 intensity (STING [8]): reduced P-TBK1 intensity
Compound: CCn1nc(C)cc1C(=O)N=c1n(C)c2cc(C(N)=O)ccc2n1CCC(CCn1c(=NC(=O)c2cc(C)nn2CC)n(C)c2cc(C(N)=O)ccc21)OCC(=O)N1CCC[C@H]1c1cccc(OC)c1 (stereo partly drawn) [Example A11, 1-(3-{2-[(S)-2-(3-Methoxyphenyl)-1-pyrrolidinyl]-2-oxoethoxy}-5-{5-carbamoyl-2-[(1-ethyl-3-methyl-5-pyrazolyl)carbonylimino]-3-methyl-2,3-dihydro-1H-1,3-benzimidazol-1-yl}pentyl)-2-[(1-ethyl-3-methyl-5-pyrazolyl)carbonylimino]-3-methyl-2,3-dihydro-1H-1,3-benzimidazole-5-carboxamide]
- STING, TBK1 and IRF1 phosphorylation (STING [7]; 5 µM for 15 min prior to 300 nM diABZI): lower compared to cells treated with diABZI c3 alone
- STING, TBK1 and IRF1 phosphorylation (STING [7]; 5 µM for 15 min prior to 8 µg/mL cGAMP): lower compared to cells treated with cGAMP alone
- phosphorylation of STING, IRF1 or TBK1 (agonism) (STING [7]; compound as single agent, no activation): no phosphorylation of STING, IRF1 or TBK1 was observed
